The numbers were not newly measured in US20250073140A1, “ANTIPERSPIRANT COMPOSITIONS CONTAINING A SYNERGISTIC COMBINATION OF COPPER, ALUMINUM, TIN, ZINC, ZIRCONIUM, AND SILVER SALTS, AND, METHODS OF USING” (priority 2023, published 2025), which cites them from elsewhere.

The conditions of the data set: literature report.

As to `[Cl][Cu][Cl]` [copper chloride], the antiperspirant activity result was “demonstrated to have antiperspirant activity”.
